Test results taken from patent publication US10781177B2, “Pyridine compound and use thereof” (Nippon Soda Co., Ltd., priority 2016, dated 2020).

System: bean aphid
Test: Efficacy confirmation test on bean aphid
Format: in vivo
Conditions: 125 ppm sprayed on cowpea seedlings with bean aphid nymphs, 4th day after spraying; read-out: Mortality rate (converted)
Description: (§1) An emulsion was prepared in the same manner as in Test Example 1. The emulsion was diluted with water so that the compound of the present invention is to be 125 ppm to obtain a chemical solution.
Cowpea plants were raised in No. 3 pots and inoculated with bean aphid nymphs on primary leaves. The chemical solution was sprayed on the cowpea seedlings. The cowpea seedlings were placed in a thermostatic chamber at a temperature of 25° C. and a humidity of 60%. On the 4th day after spraying, the life and death of the aphid were determined and the mortality rate was calculated. The test was performed in duplicate.
(§2) The mortality rate was calculated in the same manner as in Test Example 3.

Row | SMILES | mortality at 125 ppm [%]
1 | COC(=O)Oc1c(C)c(C)nc(C(C)C)c1Cc1ccc(-c2ccc(OC(F)(F)F)cc2)s1 [7-9] | 100
2 | COC(=O)Oc1c(C)c(C)nc(C(C)C)c1Cc1ccc(Oc2ccc(OC(F)(F)F)cc2)cc1 [1-9, (2-isopropyl-5,6-dimethyl-3-((4-(4-(trifluoromethoxy)phenoxy)phenyl)methyl)-4-pyridyl) methyl carbonate] | 100
3 | COC(=O)Oc1c(C)c(C)nc(C)c1Cc1ccc(Oc2ccc(OC(F)(F)F)cc2)cc1 [1-3, methyl (2,3,6-trimethyl-5-((4-(4-(trifluoromethoxy)phenoxy)phenyl)methyl)-4-pyridyl) carbonate] | 100
4 | COC(=O)Oc1c(C)c(C)nc(C(C)C)c1Cc1ccc(-c2noc(C(F)(F)F)n2)cc1 [1-44, 2-isopropyl-5,6-dimethyl-3-(4-(5-(trifluoromethyl)-1,2,4-oxadiazole-3-yl)benzyl) pyridine-4-yl methyl carbonate] | 100

System: not given
Test: not given
Conditions: not given

Row | SMILES | melting point [°C]
5 | Cc1nc(C(C)C)c(Cc2ccc3ccc(C(F)(F)F)nc3c2)c(O)c1C [7-26] | 290 to 292
6 | Cc1nc(C(C)C)c(Cc2cccc3c2CCC3c2ccc(F)cc2)c(O)c1C (stereo not shown) [7-17] | 296 to 298
7 | Cc1nc(C(C)C)c(Cc2ccc3c(c2)C(c2ccc(F)cc2)CC3)c(O)c1C (stereo not shown) [7-28] | 221 to 224
8 | C=CCOc1c(C)c(C)nc(C)c1CN1C(=O)c2ccccc2C1=O [7-7] | 145 to 147
9 | Cc1nc(C(C)C)c(Cc2ccc3ncccc3c2)c(O)c1C [7-21] | 254 to 256
10 | Cc1nc(C(C)C)c(Cc2ccc(NC(=O)CC(C)(C)C)cc2)c(O)c1C [7-52] | 300
11 | Cc1nc(C(C)C)c(Cc2ccc(-c3ccc(OC(F)(F)F)cc3)s2)c(O)c1C [7-8] | 250
12 | COC(=O)Oc1c(C)c(C)nc(C(C)C)c1Cc1ccc2sc3ccccc3c2c1 [7-33] | 154 to 155
13 | COC(=O)Oc1c(C)c(C)nc(C(C)C)c1Cc1ccc2ccc(C(F)(F)F)nc2c1 [7-27] | 125 to 126
14 | Cc1nc(C(C)C)c(Cc2ccc3ccccc3c2)c(O)c1C [7-11] | 268 to 270
15 | CCO/N=C(/NC(=O)C(F)(F)C(F)(F)F)c1ccc(Cc2c(C(C)C)nc(C)c(C)c2O)cc1 [7-45] | 210 to 212
16 | Cc1nc(C(C)C)c(Cc2ccc3cc(C(F)(F)F)ccc3c2)c(O)c1C [7-24] | 268 to 269
17 | Cc1nc(C)c(Cc2cc(-c3ccc(C(F)(F)F)cc3)on2)c(OCc2ccccc2)c1C [7-4] | 118 to 121
18 | COc1c(C)c(C)nc(C(C)C)c1Cc1ccc(C2CCC3(CC2)OCCO3)cc1 [7-42] | 107 to 108
19 | COCCC(=O)NC1CCc2cc(Cc3c(C(C)C)nc(C)c(C)c3O)ccc21 (stereo not shown) [7-34] | 115 to 120
20 | Cc1nc(C)c(Cc2cc(-c3ccc(C(F)(F)F)cc3)on2)c(O)c1C [7-5] | 200
21 | Cc1nc(C(C)C)c(Cc2cccc3c2oc2ccccc23)c(O)c1C [7-30] | 300
22 | Cc1nc(C(C)C)c(Cc2ccc3c(c2)CCC3c2ccc(F)cc2)c(O)c1C (stereo not shown) [7-15] | 260 to 262
23 | COC(=O)Oc1c(C)c(C)nc(C(C)C)c1Cc1ccc(C(=O)NC(=O)C2CCC(C)CC2)cc1 (stereo not shown) [7-47] | 169 to 171
24 | COC(=O)Oc1c(C)c(C)nc(C(C)C)c1Cc1ccc2ncccc2c1 [7-22] | 127 to 128
25 | CCO/N=C(/NC(=O)C1CCC(C)CC1)c1ccc(Cc2c(C(C)C)nc(C)c(C)c2O)cc1 (stereo not shown) [7-43] | 101 to 115
26 | COC(=O)Oc1c(C)c(C)cc(C(C)C)c1Cc1ccc(-c2ccc(C(C)=NOC3CCC(C(F)(F)F)CC3)cc2)cc1 (stereo not shown) [7-53] | 58 to 59
27 | CCO/N=C(/NC(=O)C(F)(F)C(F)(F)F)c1ccc(Cc2c(C(C)C)nc(C)c(C)c2OC(=O)OC)cc1 [7-46] | 98 to 100
28 | COc1c(C)c(C)nc(C(C)C)c1Cc1ccc(NC(=O)CC(C)(C)C)cc1 [7-51] | 154 to 155
29 | Cc1nc2cc(Cc3c(C(C)C)nc(C)c(C)c3O)ccc2s1 [7-13] | 284 to 286
30 | Cc1nc(C(C)C)c(Cc2ccc3sc(C(F)(F)F)nc3c2)c(O)c1C [7-19] | 273 to 274
31 | CC(=O)Oc1c(C)c(C)nc(C)c1Cc1cc(-c2ccc(C(F)(F)F)cc2)on1 [7-6] | 170 to 173
32 | Cc1nc(C(C)C)c(Cc2ccc3sc4ccccc4c3c2)c(O)c1C [7-32] | 300
33 | COC(=O)Oc1c(C)c(C)nc(C(C)C)c1Cc1cccc2c1oc1ccccc12 [7-31] | 114 to 116

System: Tetranychus kanzawai
Test: Efficacy confirmation test on Tetranychus kanzawai
Format: in vivo
Conditions: 125 ppm sprayed on kidney bean seedlings with female imagoes, 10th day after spraying, read-out: Mortality rate (converted)
Description: as §1
Kidney bean plants were raised in 3 pots, and inoculated with 10 female imagoes of tetranychus kanzawai on primary leaves. The medicinal solution was sprayed on the kidney bean seedlings. The kidney bean seedlings were placed in a thermostatic chamber at a temperature of 25° C. and a humidity of 65%. On the 10th day after spraying, the survival and death of imagoes of tetranychus kanzawai were determined and the mortality rate was calculated. The test was performed in duplicate.
as §2

Row | SMILES | mortality at 125 ppm [%]
34 | COC(=O)Oc1c(C)c(C)nc(C(C)C)c1Cc1ccc2nc(C(F)(F)F)ccc2c1 [7-25] | 100
35 | COC(=O)Oc1c(C)c(C)nc(C(C)C)c1Cc1ccc(Oc2ccc(OC(F)(F)F)cc2)cc1 [1-9, (2-isopropyl-5,6-dimethyl-3-((4-(4-(trifluoromethoxy)phenoxy)phenyl)methyl)-4-pyridyl) methyl carbonate] | 100
36 | COC(=O)Oc1c(C)c(C)nc(C)c1Cc1ccc(Oc2ccc(OC(F)(F)F)cc2)cc1 [1-3, methyl (2,3,6-trimethyl-5-((4-(4-(trifluoromethoxy)phenoxy)phenyl)methyl)-4-pyridyl) carbonate] | 100
37 | COC(=O)Oc1c(C)c(C)nc(C(C)C)c1Cc1ccc2c(c1)CCC2c1ccc(F)cc1 (stereo not shown) [7-16] | 100
38 | COC(=O)Oc1c(C)c(C)nc(C(C)C)c1Cc1ccc(-c2noc(C(F)(F)F)n2)cc1 [1-44, 2-isopropyl-5,6-dimethyl-3-(4-(5-(trifluoromethyl)-1,2,4-oxadiazole-3-yl)benzyl) pyridine-4-yl methyl carbonate] | 100
39 | COC(=O)Oc1c(C)c(C)nc(C(C)C)c1Cc1ccc2ccccc2c1 [7-12] | 100
40 | COC(=O)Oc1c(C)c(C)nc(C(C)C)c1Cc1ccc2sc(C(F)(F)F)nc2c1 [7-20] | 100
